In ChEMBL document CHEMBL1131308, “Synthesis and biological activity of 4-amino-7-oxo-substituted analogues of 5-deaza-5,6,7,8-tetrahydrofolic acid and 5,10-dideaza-5, 6,7,8-tetrahydrofolic acid” (J Med Chem, 1998):
Converted amounts (≈) assume the structure as drawn.

Tested on: CCRF-CEM
Test: In vitro inhibitory activity against CCRF-CEM human leukemia cells using cytotoxicity assay.
Format: functional, cell-based

`COC(=O)c1ccc(NCC2Cc3c(N)nc(N)nc3NC2=O)cc1` (centres undefined) and `Nc1nc(N)c2c(n1)NC(=O)C(CNc1ccc(C(=O)O)cc1)C2` (centres undefined) cannot be ordered by IC50: > 20 µg/mL for the first, > 20 µg/mL for the second.

`COC(=O)c1ccc(N(C)CC2Cc3c(N)nc(N)nc3NC2=O)cc1` (centres undefined) and `CN(CC1Cc2c(N)nc(N)nc2NC1=O)c1ccc(C(=O)O)cc1` (centres undefined) cannot be ordered by IC50: > 20 µg/mL for the first, > 20 µg/mL for the second.

First: COC(=O)c1ccc(CCC2Cc3c(N)nc(N)nc3NC2=O)cc1 (centres undefined)
Second: Nc1nc(N)c2c(n1)NC(=O)C(CCc1ccc(C(=O)O)cc1)C2 (centres undefined)
The IC50 of the first is higher: > 20 µg/mL for the first, 6.7 µg/mL (≈ 20.5 µM) for the second.

`CN(CC1Cc2c(N)nc(N)nc2NC1=O)c1ccc(C(=O)NC(CCC(=O)O)C(=O)O)cc1` (centres undefined) and `Nc1nc(N)c2c(n1)NC(=O)C(CNc1ccc(C(=O)NC(CCC(=O)O)C(=O)O)cc1)C2` (centres undefined) cannot be ordered by IC50: > 20 µg/mL for the first, > 20 µg/mL for the second.

Work on `Nc1nc(N)c2c(n1)NC(=O)C(CCc1ccc(C(=O)NC(CCC(=O)O)C(=O)O)cc1)C2` (centres undefined) yielded an IC50 of 39.2 µg/mL (≈ 85.9 µM).
